Measured values: US20130344053A1, “Methods of Modifying Insulin Signaling Using Biliverdin Reductase (BVR) and BVR Derived Peptides” (University of Rochester, priority 2010, published 2013)
Entries after “also recorded” stand apart in the source; their conditions may differ.

Assays:
[1] = system: rat smooth muscle cells (PAC1); assay: Glucose uptake in PAC1 cells (IGF-dependent); format: cell-based
Experimental: Glucose uptake was tested as described infra. Cells were starved in low glucose serum-depleted DMEM for 20 hours prior to transfer to PBS containing CaCl2, MgCl2. After 2 hrs myristoylated peptides were added to the medium for 2 hours. Thereafter, IGF-1 (50 ng/ml) or insulin (100 nM) was added (10 min) and glucose uptake was tested for 3 min in the presence of methyl-D-glucose,3-O-[methyl-3H]. Subsequently cells were washed 3 times in cold PBS and solubilized in NaOH (0.05 mM). Aliquots were measured for radioactivity. Non-specific binding or diffusion were tested by addition of 300 mM glucose to the cells. This value was deducted from the total counts (on the average <20%) and results were normalized for protein concentration.
(§1) FIGS. 15A-B show the effect of hBVR-based peptides on IGF-dependent glucose uptake in rat smooth muscle cells (PAC1) (FIG. 15A) and insulin-dependent glucose uptake in human epithelial kidney (HEK) cells (FIG. 15B). Cells were treated as described for FIG. 14 and glucose uptake was measured as described infra.
(§2) The therapeutic utility of various BVR peptides with regard to their ability to modify insulin and insulin growth factor (IGF) mediated cellular glucose uptake was evaluated. Human embryonic kidney cells (HEK293) or rat aortic smooth muscle cells (PAC) were starved in low glucose serum-depleted DMEM for twenty hours prior to transfer to PBS containing CaCl2, MgCl2. After two hours, myristoylated peptides were added to the medium for two additional hours. Thereafter, IGF-1 (50 ng/ml) or insulin (100 nM) was added (10 min) and glucose uptake was tested for three minutes in the presence of methyl-D-glucose,3-O-[methyl-3H]. Subsequently, cells were washed three times in cold PBS and solubilized in NaOH (0.05 mM). Aliquots were measured for radioactivity. Non-specific binding or diffusion was tested by addition of 300 mM glucose to the cells. This value was deducted from the total counts (on the average <20%) and results were normalized for protein concentration.

IRK = biological target: T1, IRK (Homo sapiens, UniProt P06213); assay: IRK autophosphorylation in the presence of hBVR-derived peptides; format: biochemical; details: 20 μM myristoylated hBVR-based peptide, 45 min, purified IRK
T1 construct: the intracellular kinase domain of the insulin receptor; purchased Biomol International (Plymouth, Pa.)
Experimental: FIGS. 13A-B show the effect of hBVR-derived peptides on autophosphorylation of IRK (FIG. 13A) and IRK kinase activity (FIG. 13B). Purified IRK was incubated in the absence or presence of 20 μM of the identified myristoylated hBVR-based peptides for 45 min in an assay system containing 50 mM Hepes pH 7.4, 20 mM MCl2,1 mM EGTA and 20 μM ATP labeled with 5 uCi gamma-P32-ATP. The reaction was stopped with the addition of phosphoric acid and aliquots were applied to P81 Whatman filters. Filters were extensively washed and subjected to counting in a scintillation counter. Total counts of radioactivity of each sample were corrected for non specific binding. […] Activity of IRK toward its substrate, IRS peptide, was tested in the presence of hBVR-based peptides. Experiments were conducted as in described for FIG. 13A with addition of IRS peptide as the substrate.
The effect of hBVR-derived peptides on autophosphorylation of IRK (FIG. 13A) and IRK kinase activity (FIG. 13B) was also investigated.

[2] = Blood glucose levels after tail vein injection; format: in vivo; details: Sprague Dawley rats, 11 μg/g body weight, measured at 20, 40, 60, 100 min
Experimental: FIG. 16 is a graph illustrating the blood glucose levels measured over time course following tail vein injection to Sprague Dawley rats of the KKRILHC (SEQ ID NO: 60) peptide in solution (11 μg/g body weight) or a vehicle control solution.
In an experiment designed to evaluate the ability of the C-terminal KKRILHC BVR peptide fragment (SEQ ID NO: 60) to modulate insulin signaling and blood glucose levels, Sprague Dawley rats were administered, via tail vein injection, the KKRILHC peptide (SEQ ID NO: 60) in solution (11 μg/g body weight) or a vehicle control solution. […] This increase in blood glucose levels was at 20, 40, and 60 minutes following administration, gradually decreasing over the 100 minute time course of assessment.

[3] = system: human epithelial kidney (HEK) cells; assay: Insulin-dependent glucose uptake in HEK cells; format: cell-based; details: myristoylated peptide 2 h, then insulin 100 nM 10 min
Experimental: as §1, §2

T1 sequence (P06213 980-1382 limits assumed): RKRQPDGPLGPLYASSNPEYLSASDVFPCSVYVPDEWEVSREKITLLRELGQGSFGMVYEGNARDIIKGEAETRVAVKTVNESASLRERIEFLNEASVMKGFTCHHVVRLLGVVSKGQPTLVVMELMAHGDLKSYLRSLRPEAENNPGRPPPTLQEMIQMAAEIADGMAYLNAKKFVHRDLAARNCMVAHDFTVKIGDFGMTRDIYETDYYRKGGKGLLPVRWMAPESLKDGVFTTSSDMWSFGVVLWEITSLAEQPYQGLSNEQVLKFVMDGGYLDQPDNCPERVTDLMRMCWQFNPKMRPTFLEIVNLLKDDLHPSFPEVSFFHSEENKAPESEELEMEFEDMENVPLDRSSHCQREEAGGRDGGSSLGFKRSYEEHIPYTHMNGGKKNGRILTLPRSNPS

Substance	effectiveness in enhancing cellular glucose uptake compared with IGF-1 ([1]; PAC1 cells, IGF-1 50 ng/ml)	cellular glucose uptake in PAC1 cells ([1]; myristoylated peptide 2 h, uptake of methyl-D-glucose,3-O-[methyl-3H] for 3 min)	IRK autophosphorylation (IRK)	blood glucose levels compared to vehicle controls [2]	IGF-mediated cellular glucose uptake in PAC1 cells ([1]; myristoylated peptide 2 h, then IGF-1 50 ng/ml 10 min)	insulin mediated cellular glucose uptake in HEK cells [3]
KYCCSRK (Biliverdin reductase derived peptide) [C-terminal hBVR peptide, amino acids 290-296 of BVR; mimics insulin signaling]	as effective as IGF-1	enhances cellular glucose uptake in PAC1 cells in a dose-dependent manner; also recorded: increases glucose uptake in PAC1 cells in a concentration dependent manner	increases IRK autophosphorylation	–	–	–
KKRILHC (Biliverdin reductase derived peptide) [hBVR peptide, amino acids 275-281 of BVR]	–	–	–	immediate increase in the blood glucose levels	inhibit IGF-mediated cellular glucose uptake	antagonizing insulin mediated cellular glucose uptake
